Literature values as cited in patent publication US8329142B2, “Compounds, compositions and methods for medical imaging of Parkinson's disease” (priority 2003, dated 2012).

Tests used:
Aβ(1-40) [1] = biological target: T1, Aβ(1-40) (Homo sapiens, UniProt P05067); conditions: in vitro
Aβ(1-28) = Aβ(1-28) (Homo sapiens, UniProt P05067); conditions: computer-based molecular modeling
[2] = intra-venous (IV) and oral administration
Aβ(1-40) [3] = biological target: T1, Aβ(1-40)

T1 sequence (P05067 672-711 limits assumed): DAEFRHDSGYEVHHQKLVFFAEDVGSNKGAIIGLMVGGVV
Aβ(1-28), sequence (P05067 672-699): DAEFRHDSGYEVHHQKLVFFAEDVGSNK

enhancement of Aβ(1-40) aggregation (Aβ(1-40) [1]): over 400% | binding to Aβ(1-28) peptide site (pocket Lys28, Asp23, Lys16) (Aβ(1-28)): bind specifically | brain penetration [2]: enters the brain | reduction of α-helical content of Aβ(1-40) (Aβ(1-40) [3]): 15%
Structure (SMILES): [12CH3][14N+]([12CH3])([12CH3])CC[16O][31P](=[16O])([16OH])[16O]CC([16OH])C[16OH] (stereo not shown) [GPC, glycerophosphocholine]
